Experiments:
HOP-92 = test: Growth inhibition of human HOP-92 cells measured after 48 hrs by SRB assay; assay type: functional
[1] = target: RAF proto-oncogene serine/threonine-protein kinase (Homo sapiens, UniProt P04049); test: Inhibition of human CRAF at 10 uM using MEK1 (K97R) as substrate in presence of [gamma-33P]ATP by scintillation counting method relative to control
A498 = test: Growth inhibition of human A498 cells measured after 48 hrs by SRB assay; assay type: functional
[2] = target: Serine/threonine-protein kinase B-raf (Homo sapiens, UniProt P15056); test: Inhibition of human BRAF at 10 uM using MEK1 (K97R) as substrate in presence of [gamma-33P]ATP by scintillation counting method relative to control
RPMI-8226 = test: Growth inhibition of human RPMI-8226 cells measured after 48 hrs by SRB assay; assay type: functional
HCT-116 = test: Growth inhibition of human HCT-116 cells measured after 48 hrs by SRB assay; assay type: functional
[3] = system: Serine/threonine-protein kinase B-raf (Homo sapiens), P15056 [V600E]; test: Inhibition of human BRAF V600E mutant at 10 uM using MEK1 (K97R) as substrate in presence of [gamma-33P]ATP by scintillation counting method relative to control
SK-MEL-5 = test: Growth inhibition of human SK-MEL-5 cells measured after 48 hrs by SRB assay; assay type: functional
SF-295 = test: Growth inhibition of human SF-295 cells measured after 48 hrs by SRB assay; assay type: functional
PC-3 = test: Growth inhibition of human PC-3 cells measured after 48 hrs by SRB assay; assay type: functional
OVCAR-4 = test: Growth inhibition of human OVCAR-4 cells measured after 48 hrs by SRB assay; assay type: functional
BT-549 = test: Growth inhibition of human BT-549 cells measured after 48 hrs by SRB assay; assay type: functional
NCI-H460 = test: Growth inhibition of human NCI-H460 cells measured after 48 hrs by SRB assay; assay type: functional
MCF7 = test: Growth inhibition of human MCF7 cells measured after 48 hrs by SRB assay; assay type: functional
SK-MEL-2 = test: Growth inhibition of human SK-MEL-2 cells measured after 48 hrs by SRB assay; assay type: functional
M14 = test: Growth inhibition of human M14 cells measured after 48 hrs by SRB assay; assay type: functional
COLO 205 = test: Growth inhibition of human COLO 205 cells measured after 48 hrs by SRB assay; assay type: functional
DU-145 = test: Growth inhibition of human DU-145 cells measured after 48 hrs by SRB assay; assay type: functional
K562 = test: Growth inhibition of human K562 cells measured after 48 hrs by SRB assay; assay type: functional
NCI-H23 = test: Growth inhibition of human NCI-H23 cells measured after 48 hrs by SRB assay; assay type: functional
SNB-75 = test: Growth inhibition of human SNB-75 cells measured after 48 hrs by SRB assay; assay type: functional
OVCAR-5 = test: Growth inhibition of human OVCAR-5 cells measured after 48 hrs by SRB assay; assay type: functional
MOLT-4 = test: Growth inhibition of human MOLT-4 cells measured after 48 hrs by SRB assay; assay type: functional
OVCAR-3 = test: Growth inhibition of human OVCAR-3 cells measured after 48 hrs by SRB assay; assay type: functional
SK-OV-3 = test: Growth inhibition of human SK-OV-3 cells measured after 48 hrs by SRB assay; assay type: functional
HL-60(TB) = test: Growth inhibition of human HL-60(TB) cells measured after 48 hrs by SRB assay; assay type: functional
UACC-62 = test: Growth inhibition of human UACC-62 cells measured after 48 hrs by SRB assay; assay type: functional
786-0 = test: Growth inhibition of human 786-0 cells measured after 48 hrs by SRB assay; assay type: functional
SR = test: Growth inhibition of human SR cells measured after 48 hrs by SRB assay; assay type: functional
Malme-3M = test: Growth inhibition of human Malme-3M cells measured after 48 hrs by SRB assay; assay type: functional
KM12 = test: Growth inhibition of human KM12 cells measured after 48 hrs by SRB assay; assay type: functional
U-251 = test: Growth inhibition of human U-251 cells measured after 48 hrs by SRB assay; assay type: functional
NCI/ADR-RES = test: Growth inhibition of human NCI/ADR-RES cells measured after 48 hrs by SRB assay; assay type: functional
SN12C = test: Growth inhibition of human SN12C cells measured after 48 hrs by SRB assay; assay type: functional
SNB-19 = test: Growth inhibition of human SNB-19 cells measured after 48 hrs by SRB assay; assay type: functional
ACHN = test: Growth inhibition of human ACHN cells measured after 48 hrs by SRB assay; assay type: functional
HOP-62 = test: Growth inhibition of human HOP-62 cells measured after 48 hrs by SRB assay; assay type: functional
MDA-MB-231 = test: Growth inhibition of human MDA-MB-231 cells measured after 48 hrs by SRB assay; assay type: functional
NCI-H226 = test: Growth inhibition of human NCI-H226 cells measured after 48 hrs by SRB assay; assay type: functional
A549 = test: Growth inhibition of human A549 cells measured after 48 hrs by SRB assay; assay type: functional
HT-29 = test: Growth inhibition of human HT-29 cells measured after 48 hrs by SRB assay; assay type: functional
CAKI-1 = test: Growth inhibition of human CAKI-1 cells measured after 48 hrs by SRB assay; assay type: functional
HCC 2998 = test: Growth inhibition of human HCC 2998 cells measured after 48 hrs by SRB assay; assay type: functional
LOX IMVI = test: Growth inhibition of human LOX IMVI cells measured after 48 hrs by SRB assay; assay type: functional
UO-31 = test: Growth inhibition of human UO-31 cells measured after 48 hrs by SRB assay; assay type: functional
CCRF-CEM = test: Growth inhibition of human CCRF-CEM cells measured after 48 hrs by SRB assay; assay type: functional
EKVX = test: Growth inhibition of human EKVX cells measured after 48 hrs by SRB assay; assay type: functional
NCI-H322M = test: Growth inhibition of human NCI-H322M cells measured after 48 hrs by SRB assay; assay type: functional
SW-620 = test: Growth inhibition of human SW-620 cells measured after 48 hrs by SRB assay; assay type: functional
SF-539 = test: Growth inhibition of human SF-539 cells measured after 48 hrs by SRB assay; assay type: functional
OVCAR-8 = test: Growth inhibition of human OVCAR-8 cells measured after 48 hrs by SRB assay; assay type: functional
UACC-257 = test: Growth inhibition of human UACC-257 cells measured after 48 hrs by SRB assay; assay type: functional
T47D = test: Growth inhibition of human T47D cells measured after 48 hrs by SRB assay; assay type: functional
RXF 393 = test: Growth inhibition of human RXF 393 cells measured after 48 hrs by SRB assay; assay type: functional
Hs-578T = test: Growth inhibition of human Hs-578T cells measured after 48 hrs by SRB assay; assay type: functional
SK-MEL-28 = test: Growth inhibition of human SK-MEL-28 cells measured after 48 hrs by SRB assay; assay type: functional
HCT-15 = test: Growth inhibition of human HCT-15 cells measured after 48 hrs by SRB assay; assay type: functional
MDA-MB-435 = test: Growth inhibition of human MDA-MB-435 cells measured after 48 hrs by SRB assay; assay type: functional
NCI-H522 = test: Growth inhibition of human NCI-H522 cells measured after 48 hrs by SRB assay; assay type: functional
IGROV-1 = test: Growth inhibition of human IGROV-1 cells measured after 48 hrs by SRB assay; assay type: functional
TK-10 = test: Growth inhibition of human TK-10 cells measured after 48 hrs by SRB assay; assay type: functional

RAF proto-oncogene serine/threonine-protein kinase, sequence (P04049 whole entry): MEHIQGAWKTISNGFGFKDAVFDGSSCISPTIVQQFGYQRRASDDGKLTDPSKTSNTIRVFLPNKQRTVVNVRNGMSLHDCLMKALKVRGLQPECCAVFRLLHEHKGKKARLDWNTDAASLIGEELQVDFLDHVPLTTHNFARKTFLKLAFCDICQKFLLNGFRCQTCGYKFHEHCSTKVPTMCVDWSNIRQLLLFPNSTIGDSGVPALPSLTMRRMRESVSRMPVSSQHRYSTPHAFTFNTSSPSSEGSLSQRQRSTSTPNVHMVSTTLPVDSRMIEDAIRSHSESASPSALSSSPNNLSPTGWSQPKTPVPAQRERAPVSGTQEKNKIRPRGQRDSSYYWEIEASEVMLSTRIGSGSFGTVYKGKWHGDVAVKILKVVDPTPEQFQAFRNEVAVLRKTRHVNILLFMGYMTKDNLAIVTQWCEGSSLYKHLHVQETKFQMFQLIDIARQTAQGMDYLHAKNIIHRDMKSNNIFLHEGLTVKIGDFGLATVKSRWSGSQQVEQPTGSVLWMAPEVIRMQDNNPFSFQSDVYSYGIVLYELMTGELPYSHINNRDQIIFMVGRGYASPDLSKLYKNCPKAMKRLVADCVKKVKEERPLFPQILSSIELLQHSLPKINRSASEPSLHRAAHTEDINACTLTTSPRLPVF
Serine/threonine-protein kinase B-raf (Homo sapiens), P15056 [V600E], sequence (P15056 whole entry V600E): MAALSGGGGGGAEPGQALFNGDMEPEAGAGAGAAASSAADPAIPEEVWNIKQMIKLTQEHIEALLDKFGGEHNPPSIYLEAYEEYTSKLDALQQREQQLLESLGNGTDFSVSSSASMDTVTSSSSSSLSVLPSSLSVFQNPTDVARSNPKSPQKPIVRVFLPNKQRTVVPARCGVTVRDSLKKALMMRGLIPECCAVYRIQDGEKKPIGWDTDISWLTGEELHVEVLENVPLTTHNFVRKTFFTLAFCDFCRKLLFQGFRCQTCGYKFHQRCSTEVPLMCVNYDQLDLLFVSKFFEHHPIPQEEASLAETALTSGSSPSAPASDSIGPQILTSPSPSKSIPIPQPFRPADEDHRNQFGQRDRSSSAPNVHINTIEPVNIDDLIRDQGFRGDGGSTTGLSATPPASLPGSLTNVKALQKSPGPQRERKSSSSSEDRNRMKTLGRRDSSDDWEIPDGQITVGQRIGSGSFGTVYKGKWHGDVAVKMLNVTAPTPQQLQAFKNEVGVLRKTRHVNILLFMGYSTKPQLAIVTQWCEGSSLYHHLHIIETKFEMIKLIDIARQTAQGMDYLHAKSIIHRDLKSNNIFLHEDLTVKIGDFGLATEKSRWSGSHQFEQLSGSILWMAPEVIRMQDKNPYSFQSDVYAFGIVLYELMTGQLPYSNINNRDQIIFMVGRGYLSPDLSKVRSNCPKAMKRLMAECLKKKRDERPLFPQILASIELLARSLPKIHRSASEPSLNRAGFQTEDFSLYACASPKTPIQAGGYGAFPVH
Serine/threonine-protein kinase B-raf, sequence (P15056 whole entry): as the sequence (P15056 whole entry V600E) above, with E600V counted along it

SMILES: COc1cc2cc(Oc3ccc(NC(=O)c4cc(C(F)(F)F)cc(C(F)(F)F)c4)cc3)c(C)nc2cc1OC
- GI50 (HOP-92): 1.82 µM
- inhibition [1]: 76.7%
- GI50 (A498): 1.13 µM
- inhibition [2]: < 47%
- GI50 (RPMI-8226): 1.57 µM
- GI50 (HCT-116): 1.56 µM
- inhibition [3]: < 47%
- GI50 (SK-MEL-5): 2.76 µM
- GI50 (SF-295): 1.64 µM
- GI50 (PC-3): 1.66 µM
- GI50 (OVCAR-4): 4.53 µM
- GI50 (BT-549): 3.02 µM

SMILES: Cc1ccc(NC(=O)c2ccc(CN3CCN(C)CC3)cc2)cc1Nc1nccc(-c2cccnc2)n1 [IMATINIB]
- GI50 (NCI-H460): 16.2 µM
- GI50 (HOP-92): 13.3 µM
- GI50 (MCF7): 18.2 µM
- GI50 (SK-MEL-2): 25 µM
- GI50 (M14): 19.3 µM
- GI50 (COLO 205): 17.6 µM
- GI50 (DU-145): 18.8 µM
- GI50 (K562): 0.02 µM
- GI50 (NCI-H23): 15 µM
- GI50 (SNB-75): 20.3 µM
- GI50 (OVCAR-5): 0.58 µM
- GI50 (MOLT-4): 5.13 µM
- GI50 (OVCAR-3): 34.2 µM
- GI50 (A498): 22 µM
- GI50 (SK-OV-3): 28.9 µM
- GI50 (HL-60(TB)): 13.5 µM
- GI50 (UACC-62): 19 µM
- GI50 (RPMI-8226): 6.05 µM
- GI50 (786-0): 16 µM
- GI50 (SR): 7.14 µM
- GI50 (HCT-116): 12.6 µM
- GI50 (Malme-3M): 16.3 µM
- GI50 (KM12): 18.8 µM
- GI50 (SK-MEL-5): 12.1 µM
- GI50 (U-251): 18 µM
- GI50 (NCI/ADR-RES): 23 µM
- GI50 (SN12C): 33.2 µM
- GI50 (SNB-19): 38.6 µM
- GI50 (ACHN): 25.2 µM
- GI50 (HOP-62): 21.5 µM
- GI50 (MDA-MB-231): 18.7 µM
- GI50 (NCI-H226): 18.1 µM
- GI50 (A549): 24.5 µM
- GI50 (HT-29): 3.97 µM
- GI50 (CAKI-1): 34 µM
- GI50 (SF-295): 19.8 µM
- GI50 (PC-3): 21.4 µM
- GI50 (HCC 2998): 21.2 µM
- GI50 (LOX IMVI): 18.1 µM
- GI50 (UO-31): 22.3 µM
- GI50 (CCRF-CEM): 17 µM
- GI50 (OVCAR-4): 20 µM
- GI50 (EKVX): 26.2 µM
- GI50 (NCI-H322M): 22.8 µM
- GI50 (SW-620): 23.4 µM
- GI50 (SF-539): 10.6 µM
- GI50 (OVCAR-8): 27.7 µM
- GI50 (UACC-257): 21.1 µM
- GI50 (T47D): 19.9 µM
- GI50 (RXF 393): 15.1 µM
- GI50 (Hs-578T): 14.6 µM
- GI50 (BT-549): 16.1 µM
- GI50 (SK-MEL-28): 14.6 µM
- GI50 (HCT-15): 19.9 µM
- GI50 (MDA-MB-435): 17.9 µM
- GI50 (NCI-H522): 16.4 µM
- GI50 (IGROV-1): 21.2 µM
- GI50 (TK-10): 26.9 µM

Reference: ChEMBL document CHEMBL4706583, “2-Anilinoquinoline based arylamides as broad spectrum anticancer agents with B-RAF/C-RAF kinase inhibitory effects: Design, synthesis, in vitro cell-based and oncogenic kinase assessments” (Eur J Med Chem, 2020)
